Assay results taken from PubChem BioAssay AID2060600 (Molecular Pharmacology Branch, DTP, NCI, 2025).

System: 996289-038-R-J1-PDC complex spheroid viability
Experiment: Anticancer human tumor 996289-038-R-J1-PDC patient-derived colon adenocarcinoma cell line growth inhibition [CLK]
Conditions: for IC50: curve of first compound; for viability, T/C: stronger effect = lower value
How it was run: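 Multi-cell-type spheroids combined patient-derived tumor cells with HUVEC endothelial cells and human mesenchymal stem cells. Paired agents were dosed in half-log steps down from about clinical Cmax, or from 10 microM where Cmax was unknown.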

[1] = second compound 0.0316 µM, first compound 0.0316 µM
[2] = second compound 0.0316 µM, first compound 0.1 µM
[3] = second compound 0.0316 µM, first compound 0.316 µM
[4] = second compound 0.0316 µM, first compound 1 µM
[5] = second compound 0.1 µM, first compound 0.0316 µM
[6] = second compound 0.1 µM, first compound 0.1 µM
[7] = second compound 0.1 µM, first compound 0.316 µM
[8] = second compound 0.1 µM, first compound 1 µM
[9] = second compound 0.316 µM, first compound 0.0316 µM
[10] = second compound 0.316 µM, first compound 0.1 µM
[11] = second compound 0.316 µM, first compound 0.316 µM
[12] = second compound 0.316 µM, first compound 1 µM
[13] = second compound 1 µM, first compound 0.0316 µM
[14] = second compound 1 µM, first compound 0.1 µM
[15] = second compound 1 µM, first compound 0.316 µM
[16] = second compound 1 µM, first compound 1 µM
[17] = second compound 3.16 µM, first compound 0.0316 µM
[18] = second compound 3.16 µM, first compound 0.1 µM
[19] = second compound 3.16 µM, first compound 0.316 µM
[20] = second compound 3.16 µM, first compound 1 µM
[21] = second compound 10 µM, first compound 0.0316 µM
[22] = second compound 10 µM, first compound 0.1 µM
[23] = second compound 10 µM, first compound 0.316 µM
[24] = second compound 10 µM, first compound 1 µM
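Note: spheroids exposed to the agents for 7 days before readout.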

CC(=O)O[C@H]1C(=O)[C@@]2(C)[C@H]([C@H](OC(=O)c3ccccc3)[C@]3(O)C[C@H](OC(=O)[C@H](O)[C@@H](NC(=O)c4ccccc4)c4ccccc4)C(C)=C1C3(C)C)[C@]1(OC(C)=O)CO[C@@H]1C[C@@H]2O + CNC(=O)c1ccc(Nc2nc(OC3CCCC3)c3c(-c4ccc5nc(C)oc5c4)c[nH]c3n2)c(OC)c1
IC50 (second compound 0.0316 µM): > 10000 nM
IC50 (second compound 0.1 µM): > 10000 nM
IC50 (second compound 0.316 µM): > 10000 nM
IC50 (second compound 1 µM): > 10000 nM
IC50 (second compound 3.16 µM): > 10000 nM
IC50 (second compound 10 µM): > 10000 nM
viability, T/C [1]: 109%
viability, T/C [2]: 103%
viability, T/C [3]: 79.9%
viability, T/C [4]: 70.3%
viability, T/C (second compound 0.0316 µM, first compound 3.16 µM): 67.4%
viability, T/C (second compound 0.0316 µM, first compound 10 µM): 64.6%
viability, T/C [5]: 110%
viability, T/C [6]: 96%
viability, T/C [7]: 80%
viability, T/C [8]: 79.2%
viability, T/C (second compound 0.1 µM, first compound 3.16 µM): 74.8%
viability, T/C (second compound 0.1 µM, first compound 10 µM): 65.4%
viability, T/C [9]: 68.6%
viability, T/C [10]: 70.3%
viability, T/C [11]: 65.6%
viability, T/C [12]: 66.3%
viability, T/C (second compound 0.316 µM, first compound 3.16 µM): 69.2%
viability, T/C (second compound 0.316 µM, first compound 10 µM): 73.3%
viability, T/C [13]: 63.2%
viability, T/C [14]: 59%
viability, T/C [15]: 57.5%
viability, T/C [16]: 53.5%
viability, T/C (second compound 1 µM, first compound 3.16 µM): 62.9%
viability, T/C (second compound 1 µM, first compound 10 µM): 61.8%
viability, T/C [17]: 59.6%
viability, T/C [18]: 55%
viability, T/C [19]: 54%
viability, T/C [20]: 54.3%
viability, T/C (second compound 3.16 µM, first compound 3.16 µM): 59%
viability, T/C (second compound 3.16 µM, first compound 10 µM): 65.2%
viability, T/C [21]: 56.7%
viability, T/C [22]: 53.5%
viability, T/C [23]: 55.2%
viability, T/C [24]: 53.8%
viability, T/C (second compound 10 µM, first compound 3.16 µM): 59.6%
viability, T/C (second compound 10 µM, first compound 10 µM): 53.7%

CCc1c2c(nc3ccc(O)cc13)-c1cc3c(c(=O)n1C2)COC(=O)[C@]3(O)CC + CNC(=O)c1ccc(Nc2nc(OC3CCCC3)c3c(-c4ccc5nc(C)oc5c4)c[nH]c3n2)c(OC)c1
IC50 (second compound 0.0316 µM): 203 nM
IC50 (second compound 0.1 µM): 239 nM
IC50 (second compound 0.316 µM): 72.3 nM
IC50 (second compound 1 µM): 15.8 nM
IC50 (second compound 3.16 µM): 8.28 nM
IC50 (second compound 10 µM): 8.57 nM
viability, T/C (second compound 0.0316 µM, first compound 0.00316 µM): 115%
viability, T/C (second compound 0.0316 µM, first compound 0.01 µM): 89.4%
viability, T/C [1]: 63.3%
viability, T/C [2]: 61.6%
viability, T/C [3]: 48.8%
viability, T/C [4]: 29.3%
viability, T/C (second compound 0.1 µM, first compound 0.00316 µM): 110%
viability, T/C (second compound 0.1 µM, first compound 0.01 µM): 96.2%
viability, T/C [5]: 69.9%
viability, T/C [6]: 63.3%
viability, T/C [7]: 49%
viability, T/C [8]: 31.6%
viability, T/C (second compound 0.316 µM, first compound 0.00316 µM): 77.4%
viability, T/C (second compound 0.316 µM, first compound 0.01 µM): 68.1%
viability, T/C [9]: 56.2%
viability, T/C [10]: 48.1%
viability, T/C [11]: 35.6%
viability, T/C [12]: 21.9%
viability, T/C (second compound 1 µM, first compound 0.00316 µM): 60.8%
viability, T/C (second compound 1 µM, first compound 0.01 µM): 52.1%
viability, T/C [13]: 46.6%
viability, T/C [14]: 33.1%
viability, T/C [15]: 25.1%
viability, T/C [16]: 13.5%
viability, T/C (second compound 3.16 µM, first compound 0.00316 µM): 55.5%
viability, T/C (second compound 3.16 µM, first compound 0.01 µM): 50.2%
viability, T/C [17]: 39%
viability, T/C [18]: 31.2%
viability, T/C [19]: 22%
viability, T/C [20]: 12.8%
viability, T/C (second compound 10 µM, first compound 0.00316 µM): 54.6%
viability, T/C (second compound 10 µM, first compound 0.01 µM): 52%
viability, T/C [21]: 38.9%
viability, T/C [22]: 32.8%
viability, T/C [23]: 23.7%
viability, T/C [24]: 10.8%
